In patent US20230085307A1, “PYRIDAZINONE COMPOUND AND HERBICIDE” (NISSAN CHEMICAL CORPORATION, priority 2019, published 2023):

Legend:
late watergrass [1] = assay: Test Example 1: herbicidal activity, application before weed generation under submerged conditions (Table 16, symbol A); type: in vivo, late watergrass (Echinochloa oryzicola); conditions: 320 g/ha applied herbicide
Method in brief: (§1)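 Alluvial soil was flooded to 4 cm depth, weed seeds were sown mixed and 2.5-leaf rice seedlings were transplanted. On sowing day, the compound's emulsion, diluted in water to a set dose, was applied to the water surface. Plants grew at 25–30 °C and were scored 0–5 after three weeks.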

Japanese bulrush [2] = assay: Test Example 1: herbicidal activity, application before weed generation under submerged conditions (Table 16, symbol B); type: in vivo, Japanese bulrush (Schoenoplectus juncoides); conditions: 320 g/ha applied herbicide
Method in brief: as §1

oval-leafed pondweed [3] = assay: Test Example 1: herbicidal activity, application before weed generation under submerged conditions (Table 16, symbol C); type: in vivo, oval-leafed pondweed (Monochoria vaginalis); conditions: 320 g/ha applied herbicide
Method in brief: as §1

late watergrass [4] = assay: Test Example 2: herbicidal activity, application during weed generation under submerged conditions (Table 17, symbol A); type: in vivo, late watergrass (Echinochloa oryzicola); conditions: AAH 320 g/ha; application during weed generation, submerged conditions
Method in brief: (§2)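 Alluvial soil in Wagner pots was flooded to 4 cm depth and sown with the three weeds together; pots were kept in a greenhouse at 25° C. to 30° C. At the one to two leaf stage, an emulsion formulation diluted in water to a set rate went onto the water surface; scored three weeks later.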

Japanese bulrush [5] = assay: Test Example 2: herbicidal activity, application during weed generation under submerged conditions (Table 17, symbol B); type: in vivo, Japanese bulrush (Schoenoplectus juncoides); conditions: AAH 320 g/ha; application during weed generation, submerged conditions
Method in brief: as §2

oval-leafed pondweed [6] = assay: Test Example 2: herbicidal activity, application during weed generation under submerged conditions (Table 17, symbol C); type: in vivo, oval-leafed pondweed (Monochoria vaginalis); conditions: AAH 320 g/ha; application during weed generation, submerged conditions
Method in brief: as §2

barnyard grass [7] = assay: Test Example 3: herbicidal effect by foliage application, Wagner pot (Table 18, symbol H); type: in vivo, barnyard grass (Echinochloa crus-galli); conditions: amount of applied herbicide 320 g/ha
Method in brief: (§3)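 Plants were sown in alluvial soil held under 0.1–0.5 cm standing water and grown 14 days in a greenhouse at 25–30 °C. An emulsifiable formulation, water-diluted to the set dose, was then sprayed onto the foliage, and effects were scored three weeks later using previously defined criteria.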

Chinese sprangletop = assay: Test Example 3: herbicidal effect by foliage application, Wagner pot (Table 18, symbol D); type: in vivo, chinese sprangletop (Leptochloa chinensis); conditions: amount of applied herbicide 320 g/ha
Method in brief: as §3

rice flat sedge = assay: Test Example 3: herbicidal effect by foliage application, Wagner pot (Table 18, symbol E); type: in vivo, rice flat sedge (Cyperus iria); conditions: amount of applied herbicide 320 g/ha
Method in brief: as §3

southern crabgrass = assay: Test Example 4: herbicidal effect by soil treatment (Table 19, symbol F); type: in vivo, southern crabgrass (Digitaria ciliaris); conditions: amount of applied herbicide 320 g/ha
Method in brief: (§4)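 Seeds were sown in sterilized diluvial soil and covered with about 1.5 cm of soil. An emulsion formulation diluted with water to a predetermined herbicide amount was sprayed evenly onto the soil surface. Plants grew in a greenhouse at 25° C. to 30° C., and the effect was scored three weeks after application using criteria from an earlier test.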

green foxtail = assay: Test Example 4: herbicidal effect by soil treatment (Table 19, symbol G); type: in vivo, green foxtail (Setaria viridis); conditions: amount of applied herbicide 320 g/ha
Method in brief: as §4

barnyard grass [8] = assay: Test Example 4: herbicidal effect by soil treatment (Table 19, symbol H); type: in vivo, barnyard grass (Echinochloa crus-galli); conditions: amount of applied herbicide 320 g/ha
Method in brief: as §4

wild oat = assay: Test Example 4: herbicidal effect by soil treatment (Table 19, symbol I); type: in vivo, wild oat (Avena fatua); conditions: amount of applied herbicide 320 g/ha
Method in brief: as §4

blackgrass = assay: Test Example 4: herbicidal effect by soil treatment (Table 19, symbol J); type: in vivo, blackgrass (Alopecurus myosuroides); conditions: amount of applied herbicide 320 g/ha
Method in brief: as §4

Italian ryegrass = assay: Test Example 4: herbicidal effect by soil treatment (Table 19, symbol K); type: in vivo, Italian ryegrass (Lolium multiflorum); conditions: amount of applied herbicide 320 g/ha
Method in brief: as §4

windgrass = assay: Test Example 4: herbicidal effect by soil treatment (Table 19, symbol L); type: in vivo, windgrass (Apera spica-venti); conditions: amount of applied herbicide 320 g/ha
Method in brief: as §4

velvetleaf = assay: Test Example 4: herbicidal effect by soil treatment (Table 19, symbol M); type: in vivo, velvetleaf (Abutilon theophrasti); conditions: amount of applied herbicide 320 g/ha
Method in brief: as §4

redroot pigweed = assay: Test Example 4: herbicidal effect by soil treatment (Table 19, symbol N); type: in vivo, redroot pigweed (Amaranthus retroflexus); conditions: amount of applied herbicide 320 g/ha
Method in brief: as §4

lambsquarters = assay: Test Example 4: herbicidal effect by soil treatment (Table 19, symbol O); type: in vivo, lambsquarters (Chenopodium album); conditions: amount of applied herbicide 320 g/ha
Method in brief: as §4

chickweed = assay: Test Example 4: herbicidal effect by soil treatment (Table 19, symbol P); type: in vivo, common chickweed (Stellaria media); conditions: amount of applied herbicide 320 g/ha
Method in brief: as §4

persian speedwell = assay: Test Example 4: herbicidal effect by soil treatment (Table 19, symbol R); type: in vivo, Persian speedwell (Veronica persica); conditions: amount of applied herbicide 320 g/ha
Method in brief: as §4

SMILES | Herbicidal effect on A: late watergrass (grade 0-5) (late watergrass [1]) | Herbicidal effect on B: Japanese bulrush (grade 0-5) (Japanese bulrush [2]) | Herbicidal effect on C: oval-leafed pondweed (grade 0-5) (oval-leafed pondweed [3]) | herbicidal effect rating, A: late watergrass (late watergrass [4]) | herbicidal effect rating, B: Japanese bulrush (Japanese bulrush [5]) | herbicidal effect rating, C: oval-leafed pondweed (oval-leafed pondweed [6]) | herbicidal effect on H: barnyard grass (barnyard grass [7]) | herbicidal effect on D: Chinese sprangletop (Chinese sprangletop) | herbicidal effect on E: rice flat sedge (rice flat sedge) | herbicidal effect on F: southern crabgrass (southern crabgrass) | herbicidal effect on G: green foxtail (green foxtail) | herbicidal effect on H: barnyard grass (barnyard grass [8]) | herbicidal effect on I: wild oat (wild oat) | herbicidal effect on J: blackgrass (blackgrass) | herbicidal effect on K: Italian ryegrass (Italian ryegrass) | herbicidal effect on L: windgrass (windgrass) | herbicidal effect on M: velvetleaf (velvetleaf) | herbicidal effect on N: redroot pigweed (redroot pigweed) | herbicidal effect on O: lambsquarters (lambsquarters) | herbicidal effect on P: chickweed (chickweed) | also measured
Cc1nn(C)c(=O)c(-c2c(-c3ccc(Cl)c(F)c3)sc3ccc(F)cc23)c1O [2-350] | 3 (Herbicidal rate of 40% or more and less than 70%) | 0 (Herbicidal rate of 5% or less (almost no effect)) | 0 (Herbicidal rate of 5% or less (almost no effect)) | 0 (Herbicidal rate of 5% or less (almost no effect)) | 2 (Herbicidal rate of 20% or more and less than 40%) | 0 (Herbicidal rate of 5% or less (almost no effect)) | 5 (Herbicidal rate of 90% or more (almost completely withered)) | 5 (Herbicidal rate of 90% or more (almost completely withered)) | 5 (Herbicidal rate of 90% or more (almost completely withered)) | 4 (Herbicidal rate of 70% or more and less than 90%) | 5 (Herbicidal rate of 90% or more (almost completely withered)) | 5 (Herbicidal rate of 90% or more (almost completely withered)) | 0 (Herbicidal rate of 5% or less (almost no effect)) | 0 (Herbicidal rate of 5% or less (almost no effect)) | 4 (Herbicidal rate of 70% or more and less than 90%) | 4 (Herbicidal rate of 70% or more and less than 90%) | 3 (Herbicidal rate of 40% or more and less than 70%) | 5 (Herbicidal rate of 90% or more (almost completely withered)) | 4 (Herbicidal rate of 70% or more and less than 90%) | 3 (Herbicidal rate of 40% or more and less than 70%) | herbicidal effect on R: persian speedwell (persian speedwell): 5 (Herbicidal rate of 90% or more (almost completely withered))
CCCC(=O)Oc1c(C)nn(C)c(=O)c1-c1c(-c2ccc(Cl)c(F)c2)sc2ccc(F)cc12 [2-351] | 5 (Herbicidal rate of 90% or more (almost completely withered)) | 3 (Herbicidal rate of 40% or more and less than 70%) | 3 (Herbicidal rate of 40% or more and less than 70%) | 3 (Herbicidal rate of 40% or more and less than 70%) | 3 (Herbicidal rate of 40% or more and less than 70%) | 4 (Herbicidal rate of 70% or more and less than 90%) | 5 (Herbicidal rate of 90% or more (almost completely withered)) | 5 (Herbicidal rate of 90% or more (almost completely withered)) | 4 (Herbicidal rate of 70% or more and less than 90%) | 0 (Herbicidal rate of 5% or less (almost no effect)) | 0 (Herbicidal rate of 5% or less (almost no effect)) | 0 (Herbicidal rate of 5% or less (almost no effect)) | 0 (Herbicidal rate of 5% or less (almost no effect)) | 0 (Herbicidal rate of 5% or less (almost no effect)) | 0 (Herbicidal rate of 5% or less (almost no effect)) | 0 (Herbicidal rate of 5% or less (almost no effect)) | 0 (Herbicidal rate of 5% or less (almost no effect)) | 3 (Herbicidal rate of 40% or more and less than 70%) | 3 (Herbicidal rate of 40% or more and less than 70%) | 1 (Herbicidal rate of 5% or more and less than 20%) | herbicidal effect on R: persian speedwell (persian speedwell): 3 (Herbicidal rate of 40% or more and less than 70%)
CCCC(=O)Oc1c(C)nn(C)c(=O)c1-c1c(-c2ccc(F)c(Cl)c2)sc2ccc(F)cc12 [2-353] | 2 (Herbicidal rate of 20% or more and less than 40%) | 0 (Herbicidal rate of 5% or less (almost no effect)) | 0 (Herbicidal rate of 5% or less (almost no effect)) | 4 (Herbicidal rate of 70% or more and less than 90%) | 3 (Herbicidal rate of 40% or more and less than 70%) | 3 (Herbicidal rate of 40% or more and less than 70%) | 5 (Herbicidal rate of 90% or more (almost completely withered)) | 5 (Herbicidal rate of 90% or more (almost completely withered)) | 5 (Herbicidal rate of 90% or more (almost completely withered)) | – | – | – | – | – | – | – | – | – | – | – | herbicidal effect, F: southern crabgrass (southern crabgrass): 3 (Herbicidal rate of 40% or more and less than 70%); herbicidal effect, G: green foxtail (green foxtail): 1 (Herbicidal rate of 5% or more and less than 20%); herbicidal effect, H: barnyard grass (barnyard grass [8]): 1 (Herbicidal rate of 5% or more and less than 20%); herbicidal effect, I: wild oat (wild oat): 0 (Herbicidal rate of 5% or less (almost no effect)); herbicidal effect, J: blackgrass (blackgrass): 0 (Herbicidal rate of 5% or less (almost no effect)); herbicidal effect, K: Italian ryegrass (Italian ryegrass): 4 (Herbicidal rate of 70% or more and less than 90%); herbicidal effect, L: windgrass (windgrass): 3 (Herbicidal rate of 40% or more and less than 70%); herbicidal effect, M: velvetleaf (velvetleaf): 2 (Herbicidal rate of 20% or more and less than 40%); herbicidal effect, N: redroot pigweed (redroot pigweed): 4 (Herbicidal rate of 70% or more and less than 90%); herbicidal effect, O: lambsquarters (lambsquarters): 4 (Herbicidal rate of 70% or more and less than 90%); herbicidal effect, P: chickweed (chickweed): 3 (Herbicidal rate of 40% or more and less than 70%); herbicidal effect, R: persian speedwell (persian speedwell): 3 (Herbicidal rate of 40% or more and less than 70%)
